Measured values published in patent US6509328B1, “Glutamate receptor antagonists” (Hoffmann-La Roche Inc., priority 1999, dated 2003).

How the values were obtained:
[1] = target: T1, rat mGlu2 receptor (Rattus norvegicus, UniProt P31421); assay: [3H]-LY354740 binding on mGlu2 transfected CHO cell membranes
T1 construct: expressed in transfected cells; vector pcDNA I-amp (pcD1mGR2)
Description: [^3H]-LY354740 Binding on mGlu2 Transfected CHO Cell Membranes
Transfection and Cell Culture
cDNA encoding the rat mGlu2 receptor protein in pBluescript II was obtained from Prof. S. Nakanishi (Kyoto, Japan), and subcloned into the eukaryotic expression vector pcDNA I-amp from Invitrogen (N V Leek, The Netherlands). This vector construct (pcD1mGR2) was co-transfected with a psvNeo plasmid encoding the gene for neomycin resistance, into CHO cells by a modified calcium phosphate method described by Chen & Okayama (1988). The cells were maintained in Dulbecco's Modified Eagle medium with reduced L-glutamine (2 mM final concentration) and 10% dialysed foetal calf serum from Gibco BRL (Basel, Switzerland). Selection was made in the presence of […] (1000 ug/ml final). Clones were identified by reverse transcription of 5 μg total RNA, followed by PCR using mGlu2 receptor specific primers 5′-[…]-3′ and 5′-[…]-3′ in 60 mM Tris HCl (pH 10), 15 mM (NH4)2SO4, 2 mM MgCl2, 25 units/ml Taq Polymerase with 30 cycles annealing at 60° C. for 1 min., extension at 72° C. for 30s, and 1 min. 95° C. denaturation.
Cells, cultured as above, were harvested and washed three times with cold PBS and frozen at −80° C. The pellet was resuspended in cold 20 mM HEPES-NaOH buffer containing 10 mM EDTA (pH 7.4), and homogenised with a polytron (Kinematica, AG, Littau, Switzerland) for 10s at 10,000 rpm. After centrifugation for 30 min. at 4° C., the pellet was washed once with the same buffer, and once with cold 20 mM HEPES-NaOH buffer containing 0.1 mM EDTA, (pH 7.4). Protein content was measured using the Pierce method (Socochim, Lausanne, Switzerland) using bovine serum albumin as standard.
After thawing, the membranes were resuspended in cold 50 mM Tris-HCl buffer containing 2 mM MgCl2 and 2 mM CaCl2, (pH 7) (binding buffer). The final concentration of the membranes in the assays was 25 μg protein/ml. Inhibition experiments were performed with membranes incubated with 10 nM [^3H]-LY354740 at room temperature, for 1 hour, in presence of various concentrations of the compound to be tested. Following the incubations, membranes were filtered onto Whatmann GF/C glass fiber filters and washed 5 times with cold binding buffer. Non specific binding was measured in the presence of 10 μM DCG IV (TOCRIS No. 0975). After transfer of the filters into plastic vials containing 10 ml of Ultima-gold scintillation fluid (Packard, Zürich, Switzerland), the radioactivity was measured by liquid scintillation in a Tri-Carb 2500 TR counter (Packard, Zürich, Switzerland).
The inhibition curves were fitted with a four parameter logistic equation giving IC50 values, and Hill coefficients.

T1 sequence (P31421 19-872): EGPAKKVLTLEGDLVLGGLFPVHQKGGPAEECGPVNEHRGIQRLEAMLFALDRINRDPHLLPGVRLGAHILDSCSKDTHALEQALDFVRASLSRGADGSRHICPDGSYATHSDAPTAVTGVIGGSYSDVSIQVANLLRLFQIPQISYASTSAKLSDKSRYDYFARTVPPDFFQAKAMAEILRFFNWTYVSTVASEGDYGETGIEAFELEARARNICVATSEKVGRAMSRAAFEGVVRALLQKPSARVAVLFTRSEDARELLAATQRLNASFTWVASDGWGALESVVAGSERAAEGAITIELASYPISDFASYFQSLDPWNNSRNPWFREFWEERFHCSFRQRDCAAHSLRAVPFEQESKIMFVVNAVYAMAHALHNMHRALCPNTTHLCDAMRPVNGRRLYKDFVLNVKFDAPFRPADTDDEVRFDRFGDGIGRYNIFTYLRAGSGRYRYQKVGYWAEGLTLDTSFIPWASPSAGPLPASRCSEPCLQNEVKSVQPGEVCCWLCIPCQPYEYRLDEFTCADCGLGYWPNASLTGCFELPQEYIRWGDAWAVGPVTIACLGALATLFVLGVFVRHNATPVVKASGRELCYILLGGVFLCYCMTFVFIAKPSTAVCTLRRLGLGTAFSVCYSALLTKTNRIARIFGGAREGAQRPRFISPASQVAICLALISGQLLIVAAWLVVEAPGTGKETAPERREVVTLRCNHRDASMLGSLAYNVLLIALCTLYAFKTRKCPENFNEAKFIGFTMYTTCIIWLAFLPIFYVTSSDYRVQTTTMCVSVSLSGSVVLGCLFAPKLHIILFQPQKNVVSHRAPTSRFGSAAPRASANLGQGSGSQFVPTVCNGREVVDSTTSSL

SMILES | melting point | Ki [1] [nM]
N#Cc1cccc(C2=Nc3ccc(I)cc3NC(=O)C2)c1 [Example 1, 3-(7-Iodo-4-oxo-4,5-dihydro-3H-benzo[b][1,4]diazepin-2-yl)-benzonitrile] | 198 to 200 °C (dec.) | 17
O=C1CC(c2cccc(Cl)c2)=Nc2ccc(C#Cc3ccccc3)cc2N1 [Example 5, 4-(3-Chloro-phenyl)-8-phenylethynyl-1,3-dihydro-benzo[b][1,4]diazepin-2-one] |  | 40
O=C1CC(c2cccc(-n3ccnc3)c2)=Nc2ccc(C#Cc3ccccc3)cc2N1 [Example 52] | 193 to 196 °C | 6
N#Cc1cccc(C2=Nc3ccc(-c4ccc(F)cc4)cc3NC(=O)C2)c1 [Example 57, 3-[7-(4-Fluoro-phenyl)-4-oxo-4,5-dihydro-3H-benzo[b][1,4]diazepin-2-yl]-benzonitrile] |  | 55
O=C1CC(c2cccc(-n3ccnc3)c2)=Nc2ccc(C#Cc3ccc(F)cc3)cc2N1 [Example 58, 8-(4-Fluoro-phenylethynyl)-4-(3-imidazol-1-yl-phenyl)-1,3-dihydro-benzo [b][1,4]diazepin-2-one] | 216 to 218 °C | 4
O=C1CC(c2cccc(-n3cncn3)c2)=Nc2ccc(C#Cc3ccc(F)cc3)cc2N1 [Example 62, 8-(4-Fluoro-phenylethynyl)-4-(3-[1,2,4]triazol-1-yl-phenyl)-1,3-dihydro-benzo[b][1,4]diazepin-2-one] | 217 to 218 °C | 49
O=C1CC(c2ccnc(-n3ccnc3)c2)=Nc2ccc(C#Cc3ccc(F)cc3)cc2N1 [Example 68, 8-(4-Fluoro-phenylethynyl)-4-(2-imidazol-1-yl-pyridin-4-yl)-1,3-dihydro-benzo[b][1,4]diazepin-2-one] | 206 °C (dec.) | 4
Cc1cn(-c2cccc(C3=Nc4ccc(-c5ccc(F)cc5)cc4NC(=O)C3)c2)cn1 [Example 76, 8-(4-Fluoro-phenyl)-4-[3-(4-methyl-imidazol-1-yl)-phenyl]-1,3-dihydro-benzo [b][1,4]diazepin-2-one] | 215 °C | 16
Cc1cc(F)ccc1-c1ccc2c(c1)NC(=O)CC(c1cccc(-n3ccnc3)c1)=N2 [Example 79, 8-(4-Fluoro-2-methyl-phenyl)-4-(3-imidazol-1-yl-phenyl)-1,3-dihydro-benzo[b][1,4]diazepin-2-one] | 170 to 172 °C | 50
O=C1CC(c2cccc(-n3ccnc3)c2)=Nc2ccc(-c3ccc(F)cc3O)cc2N1 [Example 80, 8-(4-Fluoro-2-hydroxy-phenyl)-4-(3-imidazol-1-yl-phenyl)-1,3-dihydro-benzo[b][1,4]diazepin-2-one] | 220 °C | 170
N#Cc1ccsc1C1=CC(=O)Nc2cc(-c3ccc(F)cc3)ccc2N1 [Example 83, 2-[7-(4-Fluoro-phenyl)-4-oxo-4,5-dihydro-1H-benzo [b][1,4]diazepin-2-yl]-thiophene-3-carbonitrile] | 239 to 240 °C | 250
O=C1CC(c2cccc(-n3cnnn3)c2)=Nc2ccc(C#Cc3ccc(F)cc3)cc2N1 [Example 87, 8-(4-Fluoro-phenylethynyl)-4-(3-tetrazol-1-yl-phenyl)-1,3-dihydro-benzo [b][1,4]diazepin-2-one] |  | 36
N#Cc1cc(C2=Nc3ccc(C#Cc4ccccc4)cc3NC(=O)C2)ccn1 [Example 98, 4-(4-Oxo-7-phenylethynyl-4,5-dihydro-3H-benzo [b][1,4]diazepin-2-yl)-pyridine-2-carbonitrile] |  | 39
N#Cc1cc(C2=Nc3ccc(-c4ccc(F)cc4F)cc3NC(=O)C2)ccn1 [Example 104, 4-[7-(2,4-Difluoro-phenyl)-4-oxo-4,5-dihydro-3H-benzo [b][1,4]diazepin-2-yl]-pyridine-2-carbonitrile] | 250 to 253 °C | 26
O=C1CC(c2cccc(-n3ccnn3)c2)=Nc2ccc(-c3ccccc3F)cc2N1 [Example 110, 8-(2-Fluoro-phenyl)-4-(3-[1,2,3]triazol-1-yl-phenyl)-1,3-dihydro-benzo [b][1,4]diazepin-2-one] |  | 8
Cc1cc(-c2cccc(C3=Nc4ccc(-c5ccc(F)cc5)cc4NC(=O)C3)c2)on1 [Example 117, 8-(4-Fluoro-phenyl)-4-[3-(3-methyl-isoxazol-5-yl)-phenyl]-1,3-dihydro-benzo[b][1,4]diazepin-2-one] | > 250 °C | 289
O=C1CC(c2cccc(-n3ccnn3)c2)=Nc2ccc(-c3ccc(F)cc3F)cc2N1 [Example 123, 8-(2,4-Difluoro-phenyl)-4-(3-[1,2,3]triazol-1-yl-phenyl)-1,3-dihydro-benzo [b][1,4]diazepin-2-one] |  | 10
O=C1CC(c2csc(-n3ccnc3)n2)=Nc2ccc(-c3ccccc3F)cc2N1 [Example 124, 8-(2-Fluoro-phenyl)-4-(2-imidazol-1-yl-thiazol-4-yl)-1,3-dihydro-benzo [b][1,4]diazepin-2-one] | 194 to 197 °C | 298
O=C1CC(c2cccc(-n3ccnn3)c2)=Nc2ccc(-c3cccc(F)c3F)cc2N1 [Example 129, 8-(2,3-Difluoro-phenyl)-4-(3-[1,2,3]triazol-1-yl-phenyl)-1,3-dihydro-benzo[b][1,4]diazepin-2-one] |  | 13
O=C1CC(c2cccc(-c3nc(CO)cs3)c2)=Nc2ccc(-c3ccccc3F)cc2N1 [Example 157, 8-(2-Fluoro-phenyl)-4-[3-(4-hydroxymethyl-thiazol-2-yl)-phenyl]-1,3-dihydro-benzo[b][1,4]diazepin-2-one] |  | 16
O=C1CC(c2cccc(-c3nc(C(=O)O)cs3)c2)=Nc2ccc(-c3ccccc3F)cc2N1 [Example 160, 2-{3-[7-(2-Fluoro-phenyl)-4-oxo-4,5-dihydro-3H-benzo [b][1,4]diazepin-2-yl]-phenyl}-thiazole-4-carboxylic Acid] |  | 16
Cc1nnc(-c2cccc(C3=Nc4ccc(-c5ccc(F)cc5)cc4NC(=O)C3)c2)n1C [Example 166, 4-[3-(4,5-Dimethyl-4H-[1,2,4]triazol-3-yl)-phenyl]-8-(4-fluoro-phenyl)-1,3-dihydro-benzo[b][1,4]diazepin-2-one] | 238 to 240 °C (dec.) | 108
